Source: US7875270B2, “Treatment solution and method for preventing posterior capsular opacification by selectively inducing detachment and/or death of lens epithelial cells” (Abbott Medical Optics Inc., priority 2002, dated 2011)

How the values were obtained:
[1] = tested on: human corneal endothelial cells (CEDCs); test: Confluent CEDC monolayers exposed to solutions; MTT cell viability; format: cell-based
Procedure: (§1) As described below, the confluent monolayers of LECs, CEDCs, and RPECs grown in 96-well flat-bottom plates are exposed to varying concentrations of NaCl (an osmolyte) solution. Two hundred μl of NaCl solution (prepared as described below) are added to each well at concentrations of 137 mM, 170 mM, 340 mM, 680 mM, 1360 mM and 2000 mM NaCl, respectively. The solutions have a pH of 8.0±0.4. The concentrations of NaCl correspond to final osmolarities of about 285 to 4000 mOsm/L, respectively.
The primary and first passages of human lens epithelial cells, human corneal endothelial cells, and human retinal-pigmented epithelial cells are cultured. The LECs, the CEDCs, and the RPECs are isolated from post-mortem eyes by using standard techniques of cell isolation and enzyme digestion. See Uebersax E D, Grindstaff R D and Defoe D M Exp Eye Res. 2000 March; 70(3): 381-90; Wagner L M, Saleh S M, Boyle D J, and Takemoto D J. Mol Vis. 2002 Mar. 14; 8: 59-66; Cammarata P R, Schafer G, Chen S W, Guo Z, and Reeves R E. Invest Ophthalmol Vis Sci. 2002 February; 43(2): 425-33; Rakic J M, Galand A, and Vrensen G F. Exp Eye Res. 2000 November; 71(5): 489-94. LECs and CEDCs are cultured in Eagle's minimum essential medium (MEM). RPECs are cultured in Ham's F10 medium, supplemented with 2 mM glutamine, 25 mmol/L Hepes, pH 7.4, 10 U/mL penicillin, and 10 μg/mL streptomycin and 15% heat-inactivated foetal cow serum (FCS). […]
(§2) After treatment, the treated cells are thoroughly washed, and cultured with fresh media for twelve hours before cell viability is assessed. The capability of these cells to survive at the indicated hypertonic stress levels is assessed by an MTT assay 12-24 hours post-exposure.
MTT assay is an assay to assess mitochondria function, performed as described by Mosmann (Mosmann, T. J Immunol Methods. 1983 Dec. 16; 65(1-2): 55-63. The tetrazolium salt 3-(4,5-dimethylthiazol-2-yl)-2,5-diphenyl tetrazolium bromide (MTT; supplied by Sigma Chemical Co.) is dissolved in Phosphate's Balanced Salt (PBS) Solutions at 5 mg/ml and sterilized by passage through a 0.22 μm Millipore filter. MTT stock solution is added to growth media at a ratio of 1 to 10. Cells are incubated with this growth media for three to four hours. In cells that are alive at the time of adding MTT, mitochondrial dehydrogenase cleaves the tetrazolium ring into a dark blue formazan reaction product, which builds up in the cell. […] Cells in each well are scored as MTT-positive if they are completely filled with reaction product (in the case of unattached cells) or contain many formazan crystals emanating from multiple foci (in the case of attached or spread cells). MTT-reacted cultures are then lysised by dimethyl sulfoxide (DMSO) and read in a Microplate Reader to obtain a measure of cell viability. […]

[2] = tested on: human lens epithelial cells (LECs); test: Confluent LEC monolayers exposed to solutions; MTT cell viability and microscopy; format: cell-based
Procedure: as §1
(§3) The primary and first passages of human lens epithelial cells, human corneal endothelial cells, and human retinal-pigmented epithelial cells are cultured. The LECs, the CEDCs, and the RPECs are isolated from post-mortem eyes by using standard techniques of cell isolation and enzyme digestion. See Uebersax E D, Grindstaff R D and Defoe D M Exp Eye Res. 2000 March; 70(3): 381-90; Wagner L M, Saleh S M, Boyle D J, and Takemoto D J. Mol Vis. 2002 Mar. 14; 8: 59-66; Cammarata P R, Schafer G, Chen S W, Guo Z, and Reeves R E. Invest Ophthalmol Vis Sci. 2002 February; 43(2): 425-33; Rakic J M, Galand A, and Vrensen G F. Exp Eye Res. 2000 November; 71(5): 489-94. LECs and CEDCs are cultured in Eagle's minimum essential medium (MEM). RPECs are cultured in Ham's F10 medium, supplemented with 2 mM glutamine, 25 mmol/L Hepes, pH 7.4, 10 U/mL penicillin, and 10 μg/mL streptomycin and 15% heat-inactivated foetal cow serum (FCS). The primary cultured LECs, CEDCs, and RPECs are sub-cultured at 10^4 cells/wells in 96-well flat-bottom plates until they reached 90 to 100% confluence. These cells are grown to confluence in an incubator with a humidified atmosphere of 5% CO2 at 37° C. The cells are kept in a confluent state for overnight before assays.
as §2
(§4) MTT assay is an assay to assess mitochondria function, performed as described by Mosmann (Mosmann, T. J Immunol Methods. 1983 Dec. 16; 65(1-2): 55-63. The tetrazolium salt 3-(4,5-dimethylthiazol-2-yl)-2,5-diphenyl tetrazolium bromide (MTT; supplied by Sigma Chemical Co.) is dissolved in Phosphate's Balanced Salt (PBS) Solutions at 5 mg/ml and sterilized by passage through a 0.22 μm Millipore filter. MTT stock solution is added to growth media at a ratio of 1 to 10. Cells are incubated with this growth media for three to four hours. In cells that are alive at the time of adding MTT, mitochondrial dehydrogenase cleaves the tetrazolium ring into a dark blue formazan reaction product, which builds up in the cell. MTT-reacted cultures are observed under brightfield microscopy without further processing. Cells in each well are scored as MTT-positive if they are completely filled with reaction product (in the case of unattached cells) or contain many formazan crystals emanating from multiple foci (in the case of attached or spread cells). MTT-reacted cultures are then lysised by dimethyl sulfoxide (DMSO) and read in a Microplate Reader to obtain a measure of cell viability.
Confluent monolayers of LECs are given three washes with Hank's Balanced Salt Solutions (HBSS) to remove FCS before the experiment. LECs are prepared in 96-well culture plates as in Example 1. These cells are exposed for about five to ten minutes to 200 μl/well of treatment solutions comprising increasing concentrations (˜135 mM, ˜170 mM, ˜340 mM, ˜680 mM, ˜1360 mM and ˜2000 mM) of NaCl (an osmolyte) in the presence and the absence of 30 μM frusemide (a co-transport interference agent, an ion transport mechanism interference agent). The treatment solutions have a pH of 8.0±0.4. After treatment, the treated cells are thoroughly washed, and cultured with fresh media. The viability of the treated LECs was determined by MTT assay 12-24 hours post-treatment as described in Example 1. […]

[3] = tested on: human lens epithelial cells (LECs); test: as above; format: cell-based; remark: listed apart in the source
[4] = tested on: human retinal-pigmented epithelial cells (RPECs); test: Confluent RPEC monolayers exposed to solutions; MTT cell viability; format: cell-based
Procedure: as §1, §3, §2, §4
Confluent monolayers of RPECs are prepared as described in Example 1. These cells are exposed for ten minutes to 200 μl/well of the solutions comprising increasing concentrations of NaCl (137 mM, 170 mM, 340 mM, 680 mM, 1360 mM and 2000 mM) at varying pH (8.4±0.5 and 10.6±0.5). The solutions of NaCl are prepared as described in Example 1. The pH of the solutions is adjusted with additions of 1 μl and 5 μl of 5N NaOH as described Example 3.
Confluent monolayers of LECs and RPECs are prepared as described in Example 1. […]
Confluent monolayers of LECs, CEDCs and RPECs are prepared as described in Example 1. […]
To assess whether there is any side effect of this treatment on other ocular cells, confluent monolayers of LECs, CEDCs and RPECs are prepared as described in Example 1. […]

primary cultured LECs = test: LECs on glass cover-slip, inverted phase-contrast microscopy; format: cell-based, human; conditions: ≦200 mM NaCl, 90 μM frusemide, 3 μl of 5N NaOH
Procedure: Confluent monolayers of LECs are prepared as described in Example 1 and grown on a glass cover-slip instead of 96-well flat bottom culture plates. The LECs are then thoroughly washed to remove serum.
Ten milliliters (10 mL) of the treatment solution containing ≦200 mM NaCl, 90 μM frusemide and 3 μl of 5N NaOH is prepared in a deep 35 mm petri-dish.
The cover-slips are then transferred to the petri-dish containing the treatment solution and are kept in the treatment solution for five to ten minutes. The treatment solution is then poured away, and the cover-slips along with detached LECs are thoroughly rinsed with a fresh HBSS solution with slight pressure using an aspiration/irrigation probe. After immediate examination and photography using inverted phase contrast microscope, the LECs are kept in culture for seven days with fresh medium to examine whether any residual cells would survive.

[5] = 137-2000 mM NaCl, within about five to ten minutes after addition
[6] = hypertonic stress of about 1380 mM NaCl, pH 8.0±0.4, MTT 12-24 hours post-exposure
[7] = ≧200 mM NaCl, 90 μM frusemide, 3 μl of 5N NaOH, about ten minutes

## [Cl-].[Na+] [NaCl, sodium chloride]
[1]; [5]
  shrinkage and loss of adhesion in CEDCs: not seen as significantly
[1]; [6]
  CEDCs survive (cell viability): more than eighty
[2]; [5]
  LEC shrinkage and loss of adhesion: began to shrink, round up and lose adhesion from the monolayer in a dose-dependent manner
[2]; absence of frusemide
  survival capability of the LECs (hypertonic shock NaCl concentration): 200 mM
[3]; 170 and 340 mM NaCl, pH 8.0 to 10.6, ten minutes
  LECs sensitivity to hypertonic stress: increases with increasing pH and increasing NaCl concentrations
[3]; 170 or 340 mM NaCl, pH about 8.9±0.8
  LEC detachment and bursting: detach effectively from their substrates but do not burst significantly
[3]; 170 or 340 mM NaCl, pH about 10.6±0.5, within five minutes
  LECs burst and die: greater than seventy five
[3]; [6]
  LECs survive (cell viability): about forty
[3]; rapid hypertonic shock with 1380 mM NaCl, absence of frusemide, pH 8.0±0.4
  LECs survive: about 40%
[4]; 137-2000 mM NaCl, pH raised from 8.4±0.5 to 10.6±0.5, ten minutes
  survival level of RPECs: dramatic decrease in the survival level
[4]; [5]
  shrinkage and loss of adhesion in RPECs: not seen as significantly
[4]; [6]
  RPECs survive (cell viability): more than eighty

## NS(=O)(=O)c1cc(C(=O)O)c(NCc2ccco2)cc1Cl [frusemide]
[1]; [7]
  CEDCs survived: more than seventy
[2]; 10 μM frusemide, ≦200 mM NaCl, 3 μl of 5N NaOH, about ten minutes
  LECs shrink, are lost or die: more than 50%
[2]; 30 μM frusemide, rapid hypertonic shock with 340 mM NaCl, pH 8.0±0.4
  LECs survive: almost no cells survive
[2]; between 30 μM and 120 μM frusemide, ≦200 mM NaCl, 3 μl of 5N NaOH
  LECs removed or killed: > 90%
[2]; presence of 30 μM frusemide
  survival capability of the LECs (hypertonic shock NaCl concentration): 170 mM
[3]; [7]
  survival rate for LECs: less than ten
[4]; between 30 μM and 90 μM frusemide, ≦200 mM NaCl, 3 μl of 5N NaOH
  RPECs removed or killed: few RPECs are removed or killed
[4]; [7]
  RPECs survived: eighty
Primary cultured LECs
  LEC appearance at five minutes post-treatment: rounded up and separating from their substrate
  LEC appearance at ten minutes post-treatment and after washing: substantially clear substrate
